Experimental data published in US20100035822A1, “PROLINE-RICH PEPTIDES, PHARMACEUTICAL COMPOSITION, USE OF ONE OR MORE PEPTIDES AND METHOD OF TREATMENT” (priority 2006, published 2010).
Square brackets hold non-standard residues; d marks the D form. Ends that are not written are not given here. pGlu = O=C1CC[C@@H](C(=O)O)N1

Legend:
[1] = molecular target: T1, argininosuccinate synthase (AsS) (Mus musculus, UniProt P16460); experiment: Affinity chromatography of mouse kidney extract on peptide column; identification of the bound protein; assay type: binding; conditions: affinity column with SEQ ID NO 7 as ligand; crude mouse kidney extract
T1 construct: Cytosolic and membrane fractions of the renal extract (100 mg/ml total protein) were applied to separate columns; from tissue; host or cells: Balb-c mouse kidney, cytosolic and membrane fractions
T1 sequence (P16460 1-412): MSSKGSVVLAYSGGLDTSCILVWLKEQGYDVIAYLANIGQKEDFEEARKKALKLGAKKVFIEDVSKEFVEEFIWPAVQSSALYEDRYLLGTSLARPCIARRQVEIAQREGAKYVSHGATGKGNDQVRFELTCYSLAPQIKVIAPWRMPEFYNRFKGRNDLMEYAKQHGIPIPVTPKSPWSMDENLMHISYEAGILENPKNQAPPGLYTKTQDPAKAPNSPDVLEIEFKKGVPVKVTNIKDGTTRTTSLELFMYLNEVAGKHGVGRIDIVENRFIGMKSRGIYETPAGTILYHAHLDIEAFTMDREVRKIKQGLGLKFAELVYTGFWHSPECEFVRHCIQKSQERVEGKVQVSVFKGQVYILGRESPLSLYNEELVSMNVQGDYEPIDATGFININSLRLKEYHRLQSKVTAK
Description: Starting material were the cytosolic and plasma membrane crude extracts of mouse kidney cells homogenized in the buffer 10 mM Tris-HCl pH 7.5, 25 mM saccharose, 1 mM EDTA, and 1 mM PMSF (cytosolic fraction), or 1% Triton X-100 (plasma membrane fraction). Supernatants were dialyzed in 0.2 M NaHCO3, 0.5 M NaCl, pH 8.3, and separately applied to the affinity chromatography column Hitrap NHS-activated (GE Healthcare) coupled to 5 mg of peptide SEQ ID NO 7.
Preparing affinity columns. Columns were washed three times with 2 ml 1 mM HCl before homogeneous preparations of SEQ ID NO 7 (5 mg in 1 ml 0.2 M NaHCO3, 0.5 M NaCl, pH 8.3) were applied. After 30 min incubation at room temperature, peptides had been coupled, and the column was inactivated with buffer A (0.5 M ethanolamine, 0.5 M NaCl, pH 8.3), and washed with 0.2 M NaHCO3, 0.5 M NaCl, pH 8.3, and stored at 4° C. in 50 mM Na2HPO4, 0.1%, NaN3, pH 7.0. The columns were called HiTrap-SEQ. ID NO 7. […]
Affinity chromatography and analysis of the retained proteins by SDS-PAGE. […] Protein concentration (mg/ml) was determined by the method of Bradford (Bradford, M. M. A rapid and sensitive method for the quantitation of microgram quantities of protein utilizing the principle of protein-dye binding. Anal. Biochem. 72: 248-254, 1976) with the Protein Assay reagent from BioRad. […]

[2] = system: SK-N-AS cells (human neuroblastoma); experiment: Free intracellular Ca2+ concentration in SK-N-AS cells (fluo-3 AM, confocal microscopy); assay type: cell-based
Description: In these experiments the variation in free intracellular calcium [Ca^2+]i concentration was measured in SK-N-AS cells (human neuroblastoma, ATCC No. CRL-2137) after addition of 1 μmolar of peptides SEQ ID NO 1 or SEQ ID NO 8, or of 1 μmolar captopril. Cells were kept in DMEM (Dulbecco Modified Medium), supplemented with 10% fetal bovine serum (FBS) and 1% non-essential amino acids, at 5% CO2 atmosphere, at 37° C., and 95% relative humidity. Cells were treated with trypsin, and replicated at adequate cell concentrations.
Measurements of variation in the concentration of free [Ca^2+]i were performed with a confocal microscope LSM 510 (Zeiss, Jena, Germany), as described by Martins et al., (Martins et al., Neuronal differentiation of P19 embryonal carcinoma cells modulates kinin B2 receptor gene expression and function. J. Biol. Chem. 280: 19576-19586, 2005). Approximately 5×10^4 SK-N-AS cells were plated on 60 mm plates 24 hours prior to measurement, and then treated with 4 μM fluo-3 AM (Invitrogen Corporation) in 0.5% DMSO and 0.1% non-ionic surfactant pluronic acid F-127 for 30 minutes at 37° C. Cells were washed with DMEM containing 10% FBS, and transferred to defined medium (5 μg/ml insulin, 30 μg/ml transferrin, 20 μM ethanolamine, 30 nM sodium selenite, 1 μM sodium pyruvate, 1% non-essential amino acids, 1 mM glutamine, 100 μg/ml penicillin, 100 μg/ml streptomycin, 10 mM HEPES pH 7.4 in DMEM). The fluorescent fluo-3 AM was excited at 488 nm, and the fluorescence measured at 526 nm.
Variations in the [Ca^2+]i were measured in non-stimulated cells, and in cells stimulated with peptides SEQ ID NO 1 or SEQ ID NO 8, or with captopril (Sigma Aldrich). Increase of fluorescence was monitored for 2 minutes, and images were acquired in 256×256 pixels every second. At the end of each experiment, 5 μM ionophore (4-Br-A23187) were added, followed by 10 mM EGTA, or 20 μM digitonin to determine maximum and minimum fluorescence, Fmax and Fmin respectively, as described by Grynkiewicz et al., (1985).
Intracellular calcium concentrations [Ca^2+]i, related to fluorescence (F) values obtained after addition of peptides SEQ ID NO 1 or SEQ ID NO 8, were calculated with the equation: [Ca^2+]=Kd(F−Fmin)/(Fmax−F), assuming Kd=450 nM for fluo-3 AM (Hallett et al., 1990).

[3] = system: renal nitric oxide synthase (NOS); experiment: Activation of kidney NOS in mice (3H-arginine to 3H-citrulline conversion); assay type: in vivo, mouse; conditions: HOE 140 10 μg/Kg for 1 hour
Description: Male Swiss albinos weighing 22-25 g were injected intraperitoneally with: (1) 50 μl 0.9% NaCl (basal level control), or with 0.9% NaCl supplemented with LPS (2 mg/Kg) (positive control); (2) SEQ ID NO 8 (0.21, 0.91, and 3.47 mg/Kg); (3) SEQ ID NO 8 (0.91 mg/Kg) injected into animals pre-treated via intraperitoneally with L-NAME (3 mg/Kg for 1 h); (4) SEQ ID NO 8 (0.91 mg/Kg) injected into animals pre-treated via intraperitoneally with HOE140 (10 μg/Kg for 1 h); (5) captopril (0.21, 0.91, and 3.47 mg/Kg). After 5, 15, 30, 60, 120, and 180 min, animals were killed, their kidneys removed and stored at −70° C. Animals of group 3 and 4 were killed 30 minutes after administration of the oligopeptide.
NOS activity was measured according to Bredt and Snyder [Bredt D S and Snyder S H. Isolation of nitric oxide synthetase, a calmodulin-requiring enzyme. Proc. Natl. Acad. Sci. USA, 87, 682-685, 1990], and is based on estimating the enzymatic activity of the conversion of L-arginine into L-citrulline using ^3H-arginine as a reference for the conversion.
The kidneys were minced in homogenizing buffer, pH 7.4 (20 mM HEPES, 0.32 M saccharose, 1 mM DTT, 0.1 mM EDTA, 1 mM PMSF), and sonicated. Protein dosage was performed according to Bradford (1976), followed by a chromatography step in a 300 μL Dowex 50WX8-400 column.
For the enzymatic assay, 80 μg total protein from each sample were incubated for 60 minutes at 37° C. in 200 μL buffer (30 mM HEPES, 1 mM EDTA, 1.25 mM CaCl2, 1 mM NADPH, 10 μg/mL calmodulin, 4 μM FAD, 4 μM FMN, 25 μM BH4, 120 nM arginine, 0.5 μCi ^3H-arginine). The reaction was stopped by the addition of 1 ml 20 mM HEPES, and incubation in ice bath. ^3H-citrulline was separated from ^3H-arginine by ion-exchange chromatography in a 300 μL Dowex 50WX8-400 column. Radioactivity of the eluates was measured in a beta-counter. After converting cpm (counts per minute) into dpm (disintegration per minute), the specific activity of the nitric oxide synthase (NOS) was calculated using the following equation: […]

[4] = molecular target: T2, argininosuccinate synthase (AsS) (mouse, UniProt P16460 1-412); experiment: cell-based or functional assay
T2 sequence: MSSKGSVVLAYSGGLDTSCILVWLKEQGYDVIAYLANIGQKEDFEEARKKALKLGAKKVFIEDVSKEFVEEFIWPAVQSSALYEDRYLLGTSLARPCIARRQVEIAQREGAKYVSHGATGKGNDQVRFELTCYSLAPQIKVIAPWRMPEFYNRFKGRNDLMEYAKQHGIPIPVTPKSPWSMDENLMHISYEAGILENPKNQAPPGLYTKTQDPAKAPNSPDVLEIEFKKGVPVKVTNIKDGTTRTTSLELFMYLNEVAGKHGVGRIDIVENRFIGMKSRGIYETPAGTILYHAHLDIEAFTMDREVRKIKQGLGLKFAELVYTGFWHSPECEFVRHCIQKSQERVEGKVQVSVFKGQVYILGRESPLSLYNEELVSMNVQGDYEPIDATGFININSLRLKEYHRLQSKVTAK

ENWPHPQIPP [SEQ ID NO 7]
binding to the approx. 46 kDa protein (AsS) of mouse kidney extract [1]: bound | time from the peak until the [Ca2+]i plateau [2]: 20 s | [Ca2+]i response peak ([2]; immediately after addition of the peptide): ~250 nM

HOE 140
effect of B2 receptor blockade on the NOS activity increase caused by SEQ ID NO 8 [3]: not able to prevent the increase

[pGlu]NWPHPQIPP [oligopeptide SEQ ID NO 8]
production rate of phosphate (enzymatic activity of the AsS) [4]: ~2.5 fold
